This note sets out measurements from patent publication US4340606A, “3-(p-Alkylsulfonylphenyl)oxazolidinone derivatives as antibacterial agents” (E. I. Du Pont de Nemours and Company, priority 1980, dated 1982).

In test [1] the test system is Staphylococcus epidermidis. In words: 24-hour minimum inhibitory concentration, microdilution method, Mueller-Hinton broth. To be noted: S. epidermidis, read-out: In-Vitro MIC. It is filed as cell-based. As for the experimental part: The compounds listed below in Table 1 were tested for in vivo and in vitro antibacterial activity. The twenty-four hour minimum inhibitory in vitro concentrations (MIC) for a test strain of Staphylococcus epidermidis of the compounds were determined using a standard microdilution method with Mueller-Hinton broth. This method is described in Conrath, Theodore B., 1972 Handbook of Microtiter Procedures, Dynatech Corporation, Cambridge, Mass., the disclosure of which is herein incorporated by reference. | ^1 24Hour minimum inhibitory concentration: determined by | microdilution method with S. epidermidis as the test organism.
(In general: Dilution methods test growth across graded concentrations, often in twofold steps.)

The test system of another test is Escherichia coli. Put plainly: in vivo antibacterial activity, mice infected intraperitoneally, oral dosing. As to conditions: oral at infection and 4 hours later, Reed-Muench, mortality, read-out: In-Vivo ED50, E. coli. The method, then:
(§1) The in vivo antibacterial activity of the compounds was determined as follows.
(§2) Cultures of Staphylococcus aureus or Escherichia coli were grown from stored frozen stocks in trypticase soy broth (BBL), a standard bacteriological growth medium, with shaking until a turbidity of optical density (650μ) of 0.4-0.5 was attained. These cultures were centrifuged and resuspended in either 50% hog gastric mucin for Staphyloccus aureus or saline for Escherichia coli. These suspensions were injected intraperitoneally at dilutions calculated to cause 90-100% mortality within 7 days of the mice of the control groups.
(§3) The compounds were suspended or dissolved in 0.25% Methocel, 15 CPS, at various concentrations. Mice were dosed orally by intubation at the time of infection and again four hours later. Mortality was recorded daily until test termination. The estimated dose 50 (ED50) was calculated by the Reed-Muench method, as described in Reed, L. J. and Muench, H., American Journal of Hygiene, 27, 493-497 (1938), the disclosure of which is herein incorporated by reference.

Another test relates to Staphylococcus aureus. Described as above. As to conditions: oral at infection and 4 hours later, Reed-Muench, mortality, read-out: In-Vivo ED50, S. aureus. As for the experimental part: as §1, §2, §3
For another test, the system named is Fusobacterium sp. In words: in-vitro susceptibility of anaerobic clinical isolates, agar dilution. It is filed as cell-based. To be noted: 48-hour, 4 isolates tested for each compound. As for the experimental part:
(§4) The inhibitory activity for anaerobic bacteria of 5-chloromethyl-3-(4-difluoromethylsulfonyl)phenyl-2-oxazolidinone and (1)-5-hydroxymethyl-3-(4-methylsulfonyl)phenyl-2-oxazolidinone was determined using the agar dilution method described in Barry, Arthur L., The Antimicrobic Susceptibility Test: Principles and Practices, 1976 Lea & Febiger, Philadelphia.
(§5) ^1 48hour minimum inhibitory concentration determined by agar dilutio
Background: In agar dilution the substance is mixed into plates at graded concentrations.

A further test deals with Gram positive cocci. Described as above. To be noted: 48-hour, 7 isolates tested for each compound. It is filed as cell-based. The method, then:
as §4, §5

In the next test the test system is Clostridium sp. The test is described as above. It counts as cell-based. As to conditions: 48-hour, 4 isolates tested for each compound. As for the experimental part:
as §4, §5

A further test concerns Bacteroides sp. The test is described as above. It counts as cell-based. To be noted: 48-hour, 32 isolates (chloromethyl compound), 28 isolates (hydroxymethyl compound). The method, then: as §4, §5
For a further test, the system named is anaerobic bacteria. In words: inhibitory activity for anaerobic bacteria, agar dilution. It is filed as cell-based. As to conditions: in words, from Table 3. The method, then: as §4
For a further test, the system named is Neisseria sp. Put plainly: in-vitro susceptibility of clinical isolates, agar dilution. As to conditions: 24-hour, 35° C., 42 isolates. It counts as cell-based. As for the experimental part:
(§6) The in-vitro antibacterial activity spectrum of (1)-5-Hydroxymethyl-3-(4-methylsulfonyl)phenyl-2-oxazolidinone, determined by an agar dilution procedure, is shown in table 2. This procedure is known in the art and can be summarized as follows. […] The agar plates were inoculated with a 0.001 ml calibrated loopful of bacterial inoculum diluted to contain 5×10^6 colony forming units (CFU) per ml. […] The test organisms included clinical bacterial isolates representing two gram positive and nine gram negative genera.
(§7) ^1 MIC: Minimum Inhibitory Concentration determined by agar dilution

The test system of the next test is Pseudomonas sp. Described as above. It counts as cell-based. As to conditions: 24-hour, 35° C., 78 isolates. The method, then:
as §6, §7

For another test, the system named is Staphylococci sp. Described as above. It is filed as cell-based. As to conditions: 24-hour, 35° C., 37 isolates. The method, then: as §6, §7
A further test concerns Serratia sp. The description is as above. It is filed as cell-based. As to conditions: 24-hour, 35° C., 44 isolates. As for the experimental part: as §6, §7
The subject of a further test is Hemophilus influenzae. Described as above. It is filed as cell-based. As to conditions: Haemophilus influenzae, 24-hour, 35° C., 4 isolates. As for the experimental part: as §6, §7
The subject of the next test is Providencia sp. The test is described as above. It counts as cell-based. To be noted: 24-hour, 35° C., 12 isolates. The method, then: as §6, §7
A further test concerns Klebsiella sp. The description is as above. As to conditions: 24-hour, 35° C., 68 isolates. It is filed as cell-based. The method, then: as §6, §7
The subject of another test is Proteus sp. The description is as above. As to conditions: 24-hour, 35° C., 88 isolates. It is filed as cell-based. As for the experimental part:
as §6, §7

The next test concerns Shigella sp. The test is described as above. As to conditions: 24-hour, 35° C., 9 isolates. It is filed as cell-based. The method, then: as §6, §7
A further test concerns Salmonella sp. Described as above. It counts as cell-based. To be noted: 24-hour, 35° C., 6 isolates. The method, then: as §6, §7
For the next test, the system named is E. coli. The test is described as above. It is filed as cell-based. To be noted: Escherichia coli, 24-hour, 35° C., 86 isolates. As for the experimental part:
as §6, §7

The subject of another test is Enterobacter sp. The test is described as above. It is filed as cell-based. As to conditions: 24-hour, 35° C., 41 isolates. The method, then: as §6, §7
The test system of the next test is Streptococci sp. Described as above. It counts as cell-based. As to conditions: 24-hour, 35° C., 12 isolates. As for the experimental part:
as §6, §7

In brackets after ≈: the same amount, converted by molar mass. Where a name gives a salt, the structure may show the parent alone.

For orientation: ED50 means the dose at which the effect has come halfway, by size or by number of responders. Regarding `CS(=O)(=O)c1ccc(N2CC(CO)OC2=O)cc1` (racemic) [5-Hydroxymethyl-3-(4-methylsulfonylphenyl)-2-oxazolidinone], the MIC in test [1] came to 12.5 µg/mL (≈ 46.1 µM). Moreover, the ED50 turned out to be 40 mg/kg in the test with Escherichia coli and 18 mg/kg with Staphylococcus aureus.

As to `CS(=O)(=O)c1ccc(N2CC(COC(=O)CCC(=O)O)OC2=O)cc1` (racemic) [(dl)-3-(4-Methylsulfonylphenyl)-2-oxooxazolidin-5-ylmethyl 1,4-Butanedioic Acid Mono Ester, Mono Sodium Salt], the MIC in [1] was over 50 µg/mL. The ED50 in the test on Escherichia coli turned out to be 40 mg/kg; with Staphylococcus aureus, 26 mg/kg.

For the compound `CS(=O)(=O)c1ccc(N2CC(COC(=O)CCC(=O)O)OC2=O)cc1` (single isomer, unassigned) [l-3-(4-Methylsulfonylphenyl)-2-oxooxazolidin-5-ylmethyl 1,4-Butanediodic Acid Mono Ester, Mono Sodium Salt], in the test on Staphylococcus aureus, the ED50 is 20 mg/kg.

For `C[C@H](N)C(=O)OCC1CN(c2ccc(S(C)(=O)=O)cc2)C(=O)O1` (stereo partly drawn) [5-(L)-Alanyloxymethyl-(1)-3-(4-methylsulfonyl)phenyl-2-oxazolidinone trifluoroacetic acid salt], the MIC in [1] amounted to 25 µg/mL. For the same compound, in the test on Staphylococcus aureus, the ED50 worked out at 14 mg/kg.

For the compound `CC(=O)OCC1CN(c2ccc(S(C)(=O)=O)cc2)C(=O)O1` (stereo not drawn) [5-Acetoxymethyl-3-(4-methylsulfonyl)phenyl-2-oxazolidinone], the MIC in [1] was over 50 µg/mL. In addition, in the test with Staphylococcus aureus, the median effective dose (ED50) came to 100 mg/kg.

Consider `CS(=O)(=O)c1ccc(N2CC(CBr)OC2=O)cc1` (stereo not drawn) [5-Bromomethyl-3-(4-methylsulfonyl)phenyl-2-oxazolidinone], for which, in [1], the MIC was found to be 5 µg/mL (≈ 15 µM).

As to `O=C1OC(CCl)CN1c1ccc(S(=O)(=O)C(F)F)cc1` (stereo not drawn) [5-Chloromethyl-3-(4-difluoromethylsulfonylphenyl)-2-oxazolidinone], the MIC against Fusobacterium sp. stood at 0.06 µg/mL (≈ 0.184 µM); in the test with Gram positive cocci, 0.7 µg/mL (≈ 2.15 µM); against Clostridium sp., 1 µg/mL (≈ 3.07 µM); in the test on Bacteroides sp., 1.8 µg/mL (≈ 5.53 µM); in [1] it was 2.5 µg/mL (≈ 7.68 µM). Further, the “inhibition of anaerobic bacterial growth” value in the test on anaerobic bacteria is on record as “potent inhibitors of anaerobic bacterial growth”. Further, the median effective dose (ED50) in the test on Staphylococcus aureus turned out to be 20 mg/kg.

Take `CS(=O)(=O)c1ccc(N2CC(CCl)OC2=O)cc1` (stereo not drawn) [5-Chloromethyl-3-(4-methylsulfonylphenyl)-2-oxazolidinone]: in test [1], the MIC is 5 µg/mL (≈ 17.3 µM). For the same compound, the figures for the ED50 with Escherichia coli and with Staphylococcus aureus were 63 mg/kg and 29 mg/kg, respectively.

On to `O=C1OC(CCl)CN1c1ccc(S(=O)(=O)C(F)(F)F)cc1` (stereo not drawn) [5-Chloromethyl-3-(4-trifluoromethylsulfonylphenyl)-2-oxazolidinone], for which the MIC in [1] is 4.7 µg/mL (≈ 13.7 µM). In the test on Staphylococcus aureus, the 50% effective dose (ED50) is 105 mg/kg.

On to `O=C1OC(CCl)CN1c1ccc(S(=O)(=O)C(F)(F)C(F)F)cc1` (stereo not drawn) [5-Chloromethyl-3-[4-(1,1,2,2-tetrafluoroethylsulfonyl)phenyl]-2-oxazolidinone], for which the MIC in [1] amounted to 10 µg/mL (≈ 26.6 µM). Further, the ED50 in the test on Staphylococcus aureus was determined as 92 mg/kg.

`CS(=O)(=O)c1ccc(N2CC(CF)OC2=O)cc1` (stereo not drawn) [5-Fluoromethyl-3-(4-methylsulfonyl)phenyl-2-oxazolidinone]: the MIC in [1] worked out at 20 µg/mL (≈ 73.2 µM). Moreover, the median effective dose (ED50) in the test with Staphylococcus aureus came to 35 mg/kg.

For the compound `O=C1OC(CO)CN1c1ccc(S(=O)(=O)C(F)F)cc1` (stereo not drawn) [5-Hydroxymethyl-3-(4-difluoromethylsulfonylphenyl)-2-oxazolidinone], in test [1], the MIC came to 3.1 µg/mL (≈ 10.1 µM). The median effective dose (ED50) was found to be 27 mg/kg with Escherichia coli and 23 mg/kg in the test with Staphylococcus aureus.

`C[S+]([O-])c1ccc(N2CC(CO)OC2=O)cc1` (stereo not drawn) [5-Hydroxymethyl-3-(4-methylsulfinylphenyl)-2-oxazolidinone]: in test [1], the MIC is 50 µg/mL (≈ 196 µM). Moreover, the ED50 in the test with Staphylococcus aureus amounted to 27 mg/kg.

Regarding `O=C1OC(CO)CN1c1ccc(S(=O)(=O)C(F)(F)F)cc1` (stereo not drawn) [5-Hydroxymethyl-3-(4-trifluoromethylsulfonylphenyl)-2-oxazolidinone], the MIC in test [1] worked out at 12.5 µg/mL (≈ 38.4 µM). For the same compound, the ED50 with Staphylococcus aureus turned out to be 20 mg/kg.

Consider `O=C1OC(CO)CN1c1ccc(S(=O)(=O)C(F)(F)C(F)F)cc1` (stereo not drawn) [5-Hydroxymethyl-3-[4-(1,1,2,2-tetrafluoroethylsulfonyl)phenyl]-2-oxazolidinone], for which the MIC in [1] turned out to be 12.5 µg/mL (≈ 35 µM). Further, in the test with Staphylococcus aureus, the ED50 was determined as 108 mg/kg.

As to `CCS(=O)(=O)c1ccc(N2CC(CCl)OC2=O)cc1` (stereo not drawn) [5-chloromethyl-3-(4-ethylsulfonyl)phenyl-2-oxazolidinone], in test [1], the MIC stood at 50 µg/mL (≈ 165 µM).

`C[S+]([O-])c1ccc(N2CC(CCl)OC2=O)cc1` (stereo not drawn) [5-chloromethyl-3-(4-methylsulfinyl)phenyl-2-oxazolidinone]: the MIC in test [1] was 25 µg/mL (≈ 91.3 µM).

`CS(=O)(=O)c1ccc(N2C[C@H](CO)OC2=O)cc1` [R-(-)-3-(4-Methylsulfonylphenyl)-5-hydroxymethyl-2-oxazolidinone]: the MIC in the test with Fusobacterium sp. came to 0.3 µg/mL (≈ 1.11 µM); in the test with Gram positive cocci it was 1.3 µg/mL (≈ 4.79 µM); in the test with Clostridium sp., 7 µg/mL (≈ 25.8 µM); in the test with Bacteroides sp. it was 3.4 µg/mL (≈ 12.5 µM); in [1], 12.5 µg/mL (≈ 46.1 µM); against Neisseria sp. it was 10.5 µg/mL (≈ 38.7 µM). Moreover, the MIC with Pseudomonas sp. is at least 128 µg/mL; against Staphylococci sp., 3.8 µg/mL (≈ 14 µM); in the test on Serratia sp., at least 108 µg/mL; in the test with Hemophilus influenzae it was 16 µg/mL (≈ 59 µM); against Providencia sp., 26.7 µg/mL (≈ 98.4 µM); against Klebsiella sp., 37.5 µg/mL (≈ 138 µM). For the same compound, the MIC against Proteus sp. came out at 21.7 µg/mL (≈ 80 µM); against Shigella sp. it was 11.6 µg/mL (≈ 42.8 µM); in the test with Salmonella sp., 16 µg/mL (≈ 59 µM); in the test on E. coli it was 21.7 µg/mL (≈ 80 µM); with Enterobacter sp., 37.9 µg/mL (≈ 140 µM); with Streptococci sp., 3.7 µg/mL (≈ 13.6 µM). For the same compound, the “inhibition of anaerobic bacterial growth” value with anaerobic bacteria is recorded as “potent inhibitors of anaerobic bacterial growth”. Also, the ED50 turned out to be 25 mg/kg in the test on Escherichia coli and 9 mg/kg with Staphylococcus aureus.
